Measurements as given in US8952024B2, “Herbicidal pyrimidone derivatives” (E I du Pont de Nemours and Company, priority 2009, dated 2015).

Key:
Assay type in all cases: in vivo
[1] = test system: barnyardgrass (Echinochloa crus-galli); assay: Test B flooded paddy test; details: for Plant response rating, Barnyardgrass: Flood (flooded paddy test), 13 to 15 days
How it was run: (§1)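 Each compound is added to standing floodwater (3 cm above soil, maintained) in pots of 2-leaf-stage plants; greenhouse exposure lasts 13–15 d before visual comparison with controls on a 0–100 control scale.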

rice (Oryza sativa) = assay: Test B flooded paddy test; details: for Plant response rating, Rice: Flood (flooded paddy test), 13 to 15 days
How it was run: as §1

[2] = test system: umbrella sedge (Cyperus difformis); assay: Test B flooded paddy test; details: for Plant response rating, Sedge, Umbrella: Flood (flooded paddy test), 13 to 15 days
How it was run: as §1

[3] = test system: ducksalad (Heteranthera limosa); assay: Test B flooded paddy test; details: for Plant response rating, Ducksalad: Flood (flooded paddy test), 13 to 15 days
How it was run: as §1

[4] = test system: morningglory (Ipomoea spp.); assay: Test A pre-/postemergence plant response
How it was run: (§2)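 Formulated test chemicals (non-phytotoxic solvent, surfactant) were sprayed onto soil right after planting and simultaneously onto young plants at one to two leaves, 2 to 10 cm tall. Plants stayed in the greenhouse about ten days; injury was then visually scored against untreated controls, from 0 (no effect) to 100 (complete control).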

[5] = test system: pigweed (Amaranthus retroflexus); assay: Test A pre-/postemergence plant response
How it was run: as §2

[6] = test system: morningglory (Ipomoea coccinea); assay: Test B pre-/postemergence plant response
How it was run: (§3)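 Steps: sow seed in loam–sand soil and spray preemergence, or grow plants in peat-based medium to 1–4 leaves (2–18 cm) and spray postemergence; formulation is non-phytotoxic solvent plus surfactant; hold in greenhouse 13–15 days; score visually vs controls, 0 = no effect, 100 = complete control.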

[7] = test system: woolly cupgrass (Eriochloa villosa); assay: Test B pre-/postemergence plant response
How it was run: as §3

[8] = test system: giant foxtail (Setaria faberii); assay: Test B pre-/postemergence plant response
How it was run: as §3

[9] = test system: goosegrass (Eleusine indica); assay: Test B pre-/postemergence plant response
How it was run: as §3

[10] = test system: wheat (Triticum aestivum); assay: Test B pre-/postemergence plant response
How it was run: as §3

[11] = test system: johnsongrass (Sorghum halepense); assay: Test B pre-/postemergence plant response
How it was run: as §3

[12] = 250 g ai/ha, flooded paddy test, visual rating on 0 to 100 scale (0 no effect, 100 complete control) after 13 to 15 days
[13] = 62 g ai/ha, scale of 0 to 100 where 0 is no effect and 100 is complete control
[14] = 125 g ai/ha, scale 0 to 100, 0 is no effect, 100 is complete control
[15] = Flood, 31 g ai/ha, scale 0 to 100 (0 no effect, 100 complete control)
[16] = Postemergence, 125 g ai/ha, visual injury, 0 to 100 scale (0 no effect, 100 complete control), approx. ten days
[17] = Postemergence, 500 g ai/ha, visual injury, 0 to 100 scale (0 no effect, 100 complete control), approx. ten days
[18] = Preemergence, 125 g ai/ha, 0 to 100 scale where 0 is no effect and 100 is complete control, approximately ten days
[19] = Preemergence, 500 g ai/ha, 0 to 100 scale, 0 = no effect, 100 = complete control
[20] = Postemergence, 31 g ai/ha, 0 to 100 scale (0 no effect, 100 complete control)
[21] = Postemergence, 125 g ai/ha, scale 0 (no effect) to 100 (complete control), 13 to 15 days
[22] = Postemergence, 250 g ai/ha, scale 0 to 100 (0 no effect, 100 complete control), 13 to 15 days
[23] = Postemergence, 62 g ai/ha, scale 0 to 100 (0 no effect, 100 complete control)
[24] = Preemergence, 31 g ai/ha, scale 0 to 100 (0 no effect, 100 complete control)
[25] = Preemergence, 62 g ai/ha, scale 0 to 100, 0 no effect, 100 complete control
[26] = Preemergence, 125 g ai/ha, scale 0 to 100, 0 no effect, 100 complete control
[27] = Preemergence, 250 g ai/ha, 0 to 100 scale

COCCCn1c(-c2cc(F)cc(F)c2)ncc(C(=O)C2=C(O)C3CCC(C3)C2=O)c1=O (stereo not drawn) [Compound 244]
Plant response rating, Flood, Barnyardgrass [1, 12]: 75
Plant response rating, Barnyardgrass [1, 13]: 20
Plant response rating, Barnyardgrass [1, 14]: 40
Barnyardgrass plant response rating [1, 15]: 0
Plant response rating, Flood, Rice (rice (Oryza sativa); [12]): 85
Plant response rating, Rice (rice (Oryza sativa); [13]): 0
Plant response rating, Rice (rice (Oryza sativa); [14]): 60
Rice plant response rating (rice (Oryza sativa); [15]): 0
Plant response rating, Flood, Sedge, Umbrella [2, 12]: 100
Plant response rating, Sedge, Umbrella [2, 13]: 0
Plant response rating, Sedge, Umbrella [2, 14]: 100
Sedge, Umbrella plant response rating [2, 15]: 0
Plant response rating, Flood, Ducksalad [3, 12]: 100
Plant response rating, Ducksalad [3, 13]: 80
Plant response rating, Ducksalad [3, 14]: 100
Ducksalad plant response rating [3, 15]: 35
Plant response rating, Morningglory [4, 16]: 100
Morningglory plant response rating [4, 17]: 100
Plant response rating, Morningglory [4, 18]: 30
Plant response rating, Morningglory [4, 19]: 80
Plant response rating, Pigweed [5, 16]: 100
Pigweed plant response rating [5, 17]: 100
Plant response rating, Pigweed [5, 18]: 100
Plant response rating, Pigweed [5, 19]: 100
Plant response rating, Morningglory [6, 20]: 90
Plant response rating, Morningglory [6, 21]: 100
Plant response rating, Morningglory [6, 22]: 100
Plant response rating, Morningglory [6, 23]: 95
Plant response rating, Morningglory [6, 24]: 85
Plant response rating, Morningglory [6, 25]: 90
Plant response rating, Morningglory [6, 26]: 98
Morningglory plant response rating [6, 27]: 100
Plant response rating, Cupgrass, Woolly [7, 20]: 100
Plant response rating, Cupgrass, Woolly [7, 21]: 100
Plant response rating, Cupgrass, Woolly [7, 22]: 100
Plant response rating, Cupgrass, Woolly [7, 23]: 100
Plant response rating, Cupgrass, Woolly [7, 24]: 45
Plant response rating, Cupgrass, Woolly [7, 25]: 55
Plant response rating, Cupgrass, Woolly [7, 26]: 95
Cupgrass, Woolly plant response rating [7, 27]: 100
Plant response rating, Foxtail, Giant [8, 20]: 95
Plant response rating, Foxtail, Giant [8, 21]: 95
Plant response rating, Foxtail, Giant [8, 22]: 100
Plant response rating, Foxtail, Giant [8, 23]: 95
Plant response rating, Foxtail, Giant [8, 24]: 60
Plant response rating, Foxtail, Giant [8, 25]: 80
Plant response rating, Foxtail, Giant [8, 26]: 100
Foxtail, Giant plant response rating [8, 27]: 100
Plant response rating, Goosegrass [9, 20]: 85
Plant response rating, Goosegrass [9, 21]: 98
Plant response rating, Goosegrass [9, 22]: 98
Plant response rating, Goosegrass [9, 23]: 95
Plant response rating, Goosegrass [9, 24]: 98
Plant response rating, Goosegrass [9, 25]: 100
Plant response rating, Goosegrass [9, 26]: 100
Goosegrass plant response rating [9, 27]: 100
Plant response rating, Wheat [10, 20]: 60
Plant response rating, Wheat [10, 21]: 85
Plant response rating, Wheat [10, 22]: 95
Plant response rating, Wheat [10, 23]: 80
Plant response rating, Wheat [10, 24]: 0
Plant response rating, Wheat [10, 25]: 0
Plant response rating, Wheat [10, 26]: 5
Wheat plant response rating [10, 27]: 45
Plant response rating, Johnsongrass [11, 20]: 85
Plant response rating, Johnsongrass [11, 21]: 100
Plant response rating, Johnsongrass [11, 22]: 100
Plant response rating, Johnsongrass [11, 23]: 95
Plant response rating, Johnsongrass [11, 24]: 70
Plant response rating, Johnsongrass [11, 25]: 85
Plant response rating, Johnsongrass [11, 26]: 100
Johnsongrass plant response rating [11, 27]: 100
